The target in one assay is T1, α-synuclein (fibrils) (Homo sapiens, UniProt P37840).
T1 construct: gene SNCA; recombinant human α-synuclein, preformed amyloid fibrils
The assay can be described thus: fluorescence polarization with fibrils (Kd in monomer equivalents); supported by mass spectrometry pull-down, fluorescence colocalization and aggregation kinetics. The assay is classed as binding. (In general: Fluorescence polarisation rises when a labelled molecule tumbles more slowly, as on binding a larger partner.)

For a further assay, the target named is T2, α-synuclein (Homo sapiens, UniProt P37840).
T2 construct: gene SNCA
The assay can be described thus: ThT seeded aggregation kinetics; half-time increased […] times at […] molar equivalents; weakest, not significant at […] equivalents. The assay is classed as biochemical.

The text below walks through data of PMC9811465, “Structure-Based Discovery of Small-Molecule Inhibitors of the Autocatalytic Proliferation of α-Synuclein Aggregates” (Molecular Pharmaceutics, 2022).

Structures are written as SMILES.

Broadly, the Kd is the constant that tells how readily two partners part at equilibrium.

Turning to `Cc1c(OCc2nnn[nH]2)ccc2c1oc(=O)c1ccccc12` [C, compound C], the Kd on α-synuclein (fibrils) was ~4 µM.
Take `Cc1nc2ccccn2c1C(=O)NCc1nccnc1-c1ccco1` [A, compound A]: the “ThT seeded aggregation kinetics; half-time increased 1.5 times at 10 molar equiv” value at α-synuclein was 1.5 fold increase in half-time (t1/2).
